Assay results from patent publication US9663526B2, “Aminopyrimidinyl compounds” (Pfizer Inc., priority 2014, dated 2017).
Read-outs that look alike come from different tables or passages of the source.

Experiments:
Assay type in all cases: biochemical
[1] = target: recombinant human kinase domain of JAK1 (Homo sapiens (Human), UniProt P23458); assay: JAK Caliper enzyme assay at 1 mM ATP (JAK1);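 note: microfluidic mobility-shift readout of synthetic fluorescent peptide phosphorylation, percent product converted from peak height, inhibition relative to DMSO-only wells as uninhibited baseline, room temperature incubation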
recombinant human kinase domain of JAK1, sequence (P23458 875-1153): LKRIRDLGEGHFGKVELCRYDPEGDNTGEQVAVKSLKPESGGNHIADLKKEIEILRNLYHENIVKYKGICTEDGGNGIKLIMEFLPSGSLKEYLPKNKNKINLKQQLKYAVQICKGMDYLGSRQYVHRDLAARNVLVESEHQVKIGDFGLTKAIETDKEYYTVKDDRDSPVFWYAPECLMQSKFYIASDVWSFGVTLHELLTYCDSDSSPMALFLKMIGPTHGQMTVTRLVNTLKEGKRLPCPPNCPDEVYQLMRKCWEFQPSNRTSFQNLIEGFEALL

[2] = target: recombinant human kinase domain of JAK2 (Homo sapiens (Human), UniProt O60674); assay: JAK Caliper enzyme assay at 1 mM ATP (JAK2);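 note: microfluidic mobility-shift read-out of fluorescent synthetic peptide phosphorylation, percent product converted from peak heights, room temperature, DMSO-only wells as uninhibited baseline, inhibition curve fit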
recombinant human kinase domain of JAK2, sequence (O60674 849-1124): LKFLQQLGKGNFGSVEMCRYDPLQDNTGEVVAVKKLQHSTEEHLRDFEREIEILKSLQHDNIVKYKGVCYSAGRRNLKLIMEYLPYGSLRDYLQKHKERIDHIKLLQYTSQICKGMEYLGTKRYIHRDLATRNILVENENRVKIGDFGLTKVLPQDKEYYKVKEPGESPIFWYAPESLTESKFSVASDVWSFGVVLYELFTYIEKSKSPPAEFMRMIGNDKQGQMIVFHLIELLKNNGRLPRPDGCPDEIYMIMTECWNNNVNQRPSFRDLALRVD

[3] = target: recombinant human kinase domain of JAK3 (Homo sapiens (Human), UniProt P52333); assay: JAK Caliper enzyme assay at 1 mM ATP (JAK3);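 note: microfluidic mobility-shift readout of synthetic peptide phosphorylation, percent product converted from peak heights, normalized to DMSO-only wells as uninhibited baseline, room temperature incubation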
recombinant human kinase domain of JAK3, sequence (P52333 822-1111): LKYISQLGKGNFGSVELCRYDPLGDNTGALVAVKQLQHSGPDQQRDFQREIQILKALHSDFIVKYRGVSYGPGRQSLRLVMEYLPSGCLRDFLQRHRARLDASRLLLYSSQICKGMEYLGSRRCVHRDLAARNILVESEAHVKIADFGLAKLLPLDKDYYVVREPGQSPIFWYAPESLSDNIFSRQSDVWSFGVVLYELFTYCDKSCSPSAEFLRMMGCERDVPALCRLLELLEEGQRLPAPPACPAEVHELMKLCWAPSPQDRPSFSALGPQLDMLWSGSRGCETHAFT

[4] = target: recombinant human kinase domain of TYK2 (Homo sapiens (Human), UniProt P29597); assay: JAK Caliper enzyme assay at 1 mM ATP (TYK2); conditions: 1 mM ATP; read-out: IC50 (nM) TYK2;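 note: microfluidic mobility-shift readout of synthetic peptide phosphorylation by TYK2, tuned to 20–30% conversion at room temperature, reaction stopped with EDTA, DMSO-only wells as uninhibited baseline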
recombinant human kinase domain of TYK2, sequence (P29597 897-1176): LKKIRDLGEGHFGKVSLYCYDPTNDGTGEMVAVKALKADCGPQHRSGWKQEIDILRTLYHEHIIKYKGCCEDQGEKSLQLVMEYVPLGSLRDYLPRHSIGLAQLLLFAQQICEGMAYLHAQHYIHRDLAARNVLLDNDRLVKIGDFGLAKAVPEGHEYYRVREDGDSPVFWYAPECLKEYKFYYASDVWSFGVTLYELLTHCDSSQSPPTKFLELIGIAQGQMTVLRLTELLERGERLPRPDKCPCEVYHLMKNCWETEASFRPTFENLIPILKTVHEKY

[5] = 1 mM ATP, read-out: IC50 (nM) JAK1
[6] = 1 mM ATP, read-out: IC50 (nM) JAK3

Row | Compound | IC50 [1] [nM] | IC50 [2] [nM] | IC50 [3] [nM] | IC50 [4] [nM] | IC50 [1, 5] [nM] | IC50 [3, 6] [nM]
1 | CNC(=O)c1ncc(Nc2nccc(N3C[C@H]4CC[C@@H](C3)N4[C@H]3C[C@H](C#N)C3)n2)cc1C (single isomer, unassigned) [Example 62] | 1020 | 1390 | > 10000 | 224 |  | 
2 | CNC(=O)c1ncc(Nc2nccc(N3C[C@H]4CC[C@@H](C3)N4C[C@@H]3CC3(F)F)n2)cc1C (single isomer, unassigned) [Example 67] |  | 973 |  | 108 | 418 | > 10000
3 | C[C@@H]1[C@@H]2CN(c3nc(Nc4ccc([C@@H](C)CO)nc4)ncc3F)C[C@]12NC(=O)C1CC1 (single isomer, unassigned) [Example 103] |  | 3460 |  | 150 | 1740 | > 10000
4 | C[C@H](CO)c1ccc(Nc2ncc(F)c(N3C[C@H]4[C@@H](C)[C@@]4(NC(=O)C4CC4)C3)n2)cn1 (single isomer, unassigned) [Example 104] |  | 3130 |  | 86 | 1150 | > 10000
5 | O=C(C1CC1)N1[C@@H]2CC[C@H]1CN(c1nc(Nc3ccnnc3)ncc1F)C2 [Example 1, cyclopropyl{(1R,5S)-3-[5-fluoro-2-(pyridazin-4-ylamino)pyrimidin-4-yl]-3,8-diazabicyclo[3.2.1]oct-8-yl}methanone] |  | > 10000 |  | 1100 | 2730 | > 10000
6 | CCCNC(=O)c1cc(Nc2ncc(F)c(N3C[C@H]4CC[C@@H](C3)N4C(=O)C3CC3)n2)n[nH]1 [Example 2, 3-({4-[(1R,5S)-8-(cyclopropylcarbonyl)-3,8-diazabicyclo[3.2.1]oct-3-yl]-5-fluoropyrimidin-2-yl}amino)-N-propyl-1H-pyrazole-5-carboxamide] |  | 4720 |  | 432 | 1550 | > 10000
7 | NS(=O)(=O)c1ccc(Nc2ncc(F)c(N3C[C@H]4CC[C@@H](C3)N4C(=O)C3CC3)n2)cn1 [Example 4, 5-({4-[(1R,5S)-8-(cyclopropylcarbonyl)-3,8-diazabicyclo[3.2.1]oct-3-yl]-5-fluoropyrimidin-2-yl}amino)pyridine-2-sulfonamide] |  |  |  | 176 | 659 | > 10000
8 | CCNC(=O)c1ccc(Nc2nccc(N3C[C@H]4CC[C@@H](C3)N4C(=O)CC#N)n2)cc1 [Example 13, 4-({4-[(1R,5S)-8-(cyanoacetyl)-3,8-diazabicyclo[3.2.1]oct-3-yl]pyrimidin-2-yl}amino)-N-ethylbenzamide] |  | 199 |  |  | 41 | > 10000
9 | O=C(c1ccno1)N1[C@@H]2CC[C@H]1CN(c1ccnc(Nc3cn[nH]c3)n1)C2 [Example 17, 1,2-oxazol-5-yl{(1R,5S)-3-[2-(1H-pyrazol-4-ylamino)pyrimidin-4-yl]-3,8-diazabicyclo[3.2.1]oct-8-yl}methanone] |  | 3380 |  | 242 | 684 | > 10000
10 | CNC(=O)c1ncc(Nc2nccc(N3C[C@H]4CC[C@@H](C3)N4C(=O)[C@H]3CC3(F)F)n2)cc1F [Example 28, 5-({4-[(1R,5S)-8-{[(1R)-2,2-difluorocyclopropyl]carbonyl}-3,8-diazabicyclo[3.2.1]oct-3-yl]pyrimidin-2-yl}amino)-3-fluoro-N-methylpyridine-2-carboxamide] | 1370 | 8150 |  | 736 |  | > 10000
11 | Cc1cc(Nc2nccc(N3C[C@H]4CC[C@@H](C3)N4C(=O)C3CC3(F)F)n2)cnc1C(N)=O (stereo partly drawn) [Example 34, 5-[(4-{(1R,5S)-8-[(2,2-difluorocyclopropyl)carbonyl]-3,8-diazabicyclo[3.2.1]oct-3-yl}pyrimidin-2-yl)amino]-3-methylpyridine-2-carboxamide] |  | 377 |  |  | 152 | > 10000
12 | Cn1cc(Nc2nccc(N3C[C@H]4CC[C@@H](C3)N4C(=O)[C@@H]3C[C@@H]3C#N)n2)cn1 [Example 37, (1S,2R)-2-{[(1R,5S)-3-{2-[(1-methyl-1H-pyrazol-4-yl)amino]pyrimidin-4-yl}-3,8-diazabicyclo[3.2.1]oct-8-yl]carbonyl}cyclopropanecarbonitrile] |  | 1400 |  | 250 | 467 | 8310
13 | Cn1cc(Nc2nccc(N3C[C@H]4CC[C@@H](C3)N4C(=O)NCCC#N)n2)cn1 [Example 47, (1R,5S)—N-(2-cyanoethyl)-3-{2-[(1-methyl-1H-pyrazol-4-yl)amino]pyrimidin-4-yl}-3,8-diazabicyclo[3.2.1]octane-8-carboxamide] |  |  |  | 65 | 42 | > 10000
14 | O=C([C@H]1CC1(F)F)N1[C@@H]2CC[C@H]1CN(c1ccnc(Nc3cn[nH]c3)n1)C2 [Example 50, ((1R,5S)-3-(2-((1H-Pyrazol-4-yl)amino)pyrimidin-4-yl)-3,8-diazabicyclo[3.2.1]octan-8-yl)((R)-2,2-difluorocyclopropyl)methanone] |  | 3420 |  |  | 478 | > 10000
15 | CNC(=O)c1ncc(Nc2nccc(N3C[C@H]4CC[C@@H](C3)N4CC3(C)COC3)n2)cc1C [Example 54, N,3-dimethyl-5-[(4-{(1R,5S)-8-[(3-methyloxetan-3-yl)methyl]-3,8-diazabicyclo[3.2.1]oct-3-yl}pyrimidin-2-yl)amino]pyridine-2-carboxamide] |  |  |  | 8 | 19 | 4290
16 | N#CC1(CN2[C@@H]3CC[C@H]2CN(c2ccnc(Nc4cn[nH]c4)n2)C3)CC1 [Example 71, 1-({(1R,5S)-3-[2-(1H-pyrazol-4-ylamino)pyrimidin-4-yl]-3,8-diazabicyclo[3.2.1]oct-8-yl}methyl)cyclopropanecarbonitrile] |  |  |  | 152 | 153 | > 10000
17 | CCNC(=O)c1ccc(Nc2ncc(F)c(N3C[C@H]4CC[C@@H](C3)N4C(=O)C(F)(F)F)n2)cc1C [Example 72, N-ethyl-4-({5-fluoro-4-[8-(trifluoroacetyl)-3,8-diazabicyclo[3.2.1]oct-3-yl]pyrimidin-2-yl}amino)-2-methylbenzamide] |  | 151 |  |  | 81 | 411
18 | C[C@@H]1[C@@H]2CN(c3nc(Nc4cnc([C@@H](C)O)c(Cl)c4)ncc3F)C[C@]12NC(=O)C1CC1 [Example 106, N-{(1S,5R,6R)-3-[2-({5-chloro-6-[(1R)-1-hydroxyethyl]pyridin-3-yl}amino)-5-fluoropyrimidin-4-yl]-6-methyl-3-azabicyclo[3.1.0]hex-1-yl}cyclopropanecarboxamide] |  | 9410 |  |  |  | > 10000
19 | CCNC(=O)c1ccc(Nc2ncc(F)c(N3CC4CC(C3)N4C(=O)C(F)(F)F)n2)cc1C [Example 116, N-ethyl-4-({5-fluoro-4-[6-(trifluoroacetyl)-3,6-diazabicyclo[3.1.1]hept-3-yl]pyrimidin-2-yl}amino)-2-methylbenzamide] |  |  |  | 20 | 1470 | 9820
20 | NC(=O)c1ncc(Nc2nccc(N3C[C@H]4CC[C@@H](C3)N4C(=O)[C@@H]3CC3(F)F)n2)cc1F [Example 117, 5-({4-[(1R,5S)-8-{[(1S)-2,2-Difluorocyclopropyl]carbonyl}-3,8-diazabicyclo[33.2.1]oct-3-yl]pyrimidin-2-yl}amino)-3-fluoropyridine-2-carboxamide] |  | 452 |  |  | 114 | > 10000
